# Test results published in patent US6331548A, “1-cycloalkyl-1,8-naphthyridin-4-one derivative as type IV phosphodiesterase inhibitor” (Suntory Limited, priority 1998, dated 2001).
# pIC50: −log10 of the molar value.
# Assays:
# [1] = biological target: type IV phosphodiesterase; assay: Type IV phosphodiesterase inhibiting activity; type: biochemical, human; details: U937 type IV phosphodiesterase fraction, 0.28 μM cAMP, pH 7.5, 30° C., 30 minutes; read-out: PDEIV-IC50
# Procedure, shortened: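 PDE4 fraction from U937 cell lysate, separated on DEAE Sepharose, incubated with compound, 0.4 μCi 3H-cAMP (0.28 μM cAMP) and 5'-nucleotidase in Tris-HCl pH 7.5 with 1 mM MgCl2 for 30 min at 30 °C. Product radioactivity counted after QAE-Sephadex removal of substrate.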
# [2] = test system: TNF-α production by LPS stimulated macrophages; assay: TNF-α production inhibitory activity by LPS stimulated macrophages; type: cell-based; details: Macrophage, BALB/c mouse peritoneal macrophages, cultured for 8 hours, ELISA
# Method: The following assay was used to evaluate the ability of the compound of the present invention to suppress TNF-α production by LPS stimulated macrophages according to Immunopharmacol. 29, 121-127 (1995).
# 1) 6 to 10 week old female BALB/c mice were used, 2 ml portions of thioglycolate were intraperitoneally administered, and the abdominal cavities were washed by 10 ml of PBS after 4 days, whereby 1 to 2×10^7 peritoneal cells were obtained per mouse. These were suspended in a hemocyte solution (0.75% ammonium chloride, 17 mM tris-hydrochlorate buffer, pH7.2), centrifuged, then resuspended in an RPMI1640 medium including 10% fetal calf serum and seeded in a 96-well cell culture plate at a density of 1×10^5 cells/50 μl/well. Since these cells adhered strongly to the tissue culture plate and were positive in nonspecific esterase staining, they were used for the test as mouse peritoneal macrophages. Mouse peritoneal macrophages were precultured overnight at 37° C. in […] for the experiment.
# 2) E. Coli (serum type 055:B5) derived LPS was dissolved in PBS in a concentration of 1 mg/ml, then sterilized by filtration. The test compound was dissolved in DMSO to make a 1000-fold concentration solution of the final concentration of use. 10 μl of the above LPS stock solution (final concentration 10 μg/ml) and 1 μl of the tested substance stock solution were added and mixed in 0.5 ml of RPMI1640 medium containing 10% fetal calf serum. This was added to the above cells at 50 μl/well and cultured for 8 hours. The cultured supernatant was recovered from each well and the TNF-α concentration was measured by the ELISA method (Cytoscreen® Immunoassay Kit Mouse TNF-α, BioSourse International).
# The comparative example was the compound described in WO-A-97-04775, Example 1, mentioned above.
# [3] = test system: mice; assay: Toxicity: death on intraperitoneal administration to mice for 5 weeks; type: in vivo; details: 10 mg/kg per day intraperitoneally for 5 weeks
# Description: Further, the compounds of the present invention are low in toxicity, and these compounds are expected to be high in safety.
Structure (SMILES),pIC50 [1],pIC50 [2],death [3]
"O=C(Nc1c(Cl)cncc1Cl)c1cn(C2CCN(C(=O)OCc3ccccc3)CC2)c2ncccc2c1=O [Example 25, N-(3,5-dichloropyridin-4-yl)-1-(1-benzyloxycarbonylpiperidin-4-yl)-1,4-dihydro[1,8]naphthylidin-4-one-3-carboxamide]",9.05,9.40,no death
"COC(=O)N1CCC(n2cc(C(=O)Nc3c(Cl)cncc3Cl)c(=O)c3cccnc32)CC1 [Example 26, N-(3,5-dichloropyridin-4-yl)-1-(1-methoxycarbonylpiperidin-4-yl)-1,4-dihydro[1,8]naphthylidin-4-one-3-carboxamide]",9.05,9.70,no death
"COC(=O)N1CC(n2cc(C(=O)Nc3c(Cl)cncc3Cl)c(=O)c3cccnc32)C1 [Example 34, N-(3,5-dichloropyridin-4-yl)-1-(1-methoxycarbonylazetidin-3-yl)-1,4-dihydro[1,8]naphthylidin-4-one-3-carboxamide]",7.62,7.10,no death
"COC(=O)N1CCN(n2cc(C(=O)Nc3c(Cl)cncc3Cl)c(=O)c3cccnc32)CC1 [Example 56, N-(3,5-dichloropyridin-4-yl)-1-(4-methoxycarbonylpiperazin-1-yl)-1,4-dihydro[1,8]naphthylidin-4-one-3-carboxamide]",8.80,7.82,no death
"O=C(Nc1ccncc1)c1cn(N2CCOCC2)c2ncccc2c1=O [Example 106, N-(4-pyridyl)-1-(1-morpholino)-1,4-dihydro[1,8]naphthylidin-4-one-3-carboxamide]",6.85,7.05,no death
"O=C(Nc1c(Cl)cncc1Cl)c1cn([C@H]2CC[C@H](O)CC2)c2ncccc2c1=O [Example 117, N-(3,5-dichloropyridin-4-yl)-1-(trans-4-hydroxycyclohexyl)-1,4-dihydro[1,8]naphthylidin-4-one-3-carboxamide]",8.43,8.70,no death
"O=C1CCC(n2cc(C(=O)Nc3c(Cl)cncc3Cl)c(=O)c3cccnc32)CC1 [Example 120, N-(3,5-dichloropyridin-4-yl)-1-(4-oxocyclohexyl)-1,4-dihydro[1,8]naphthylidin-4-one-3-carboxamide]",8.57,9.15,no death
"CO[C@H]1CC[C@H](n2cc(C(=O)Nc3c(Cl)cncc3Cl)c(=O)c3cccnc32)CC1 [Example 127, N-(3,5-dichloropyridin-4-yl)-1-(trans-4-methoxycyclohexyl)-1,4-dihydro[1,8]naphthylidin-4-one-3-carboxamide]",8.14,7.82,no death
"O=C(Nc1ccncc1)c1cn(C2CC2)c2ncccc2c1=O [Example 139, N-(4-pyridyl)-1-cyclopropyl-1,4-dihydro[1,8]naphthylidin-4-one-3-carboxamide]",6.62,6.43,no death
